Consider six compounds from patent US20180030074A1, “PHOSPHONIUM COMPOUND AND PRODUCTION METHOD THEREFOR” (priority 2014, published 2018).

For series [1] the following is noted: comparison values quoted without source or species; cited from earlier work.
For series [2] the following is noted: background statement; cited from earlier work.
Series [3] has as its system myocardium. Kind of series: Mouse PET/CT imaging. It counts as in vivo, Slc:ICR mice. Particulars: mice, i.v. caudal vein; for accumulation of radioactivity in the myocardium (PET/CT images): imaged 60 minutes after administration for 10 minutes; for contrast of myocardial images: PET/CT 60 minutes after administration. The method, then:
The animals used in this measurement were 6-10-week-old male Slc:ICR mice (from Japan SLC, Inc.). […] Then, the mice were fixed under isoflurane anesthesia (2%, 1.5 mL/min.), and after 60 minutes of the administration, the whole bodies of the mice were imaged by small-animal PET (ClairvivoPET produced by Shimadzu Corporation) for 10 minutes. Subsequently, while the mice were kept fixed, their whole bodies were imaged by small-animal CT (ClairvivoCT produced by Shimadzu Corporation). The PET data were reconstructed by 3D-DRAMA, and the pixel values of the obtained PET images were converted to SUV to generate SUV images. These images were fused with CT images to produce fused images.

The nature of series [4]: Mouse biodistribution study. It counts as in vivo, Slc:ICR mice. Particulars: mice; for accumulation of labeled compound in the myocardium versus adjacent organs: i.v., 60 or 120 minutes after administration, gamma counter, n=4; for ratio of radioactivity accumulations in the myocardium and liver (heart/liver ratio): time point of 60 minutes. On the procedure:
(§1) The animals used in this measurement were 6-8-week-old male Slc:ICR mice (from Japan SLC, Inc.) (n=4). Each of different physiological saline solutions of the [^18F]-labeled compounds (200 μL, 370-740 kBq) used in this measurement was administered to the awake mice via the caudal vein, and after 60 or 120 minutes of the administration, the mice were euthanized by cervical dislocation under isoflurane anesthesia. After blood was sampled from the heart immediately, the heart, lung, liver, spleen, kidney, small intestine, thigh muscle, thigh bone, and brain were excised and measured for amount of radioactivity by a γ counter. The weights of the excised organs were measured, and on that basis, the accumulation rates per gram of the organs with respect to dose (% dose/g of organ, % ID/g) were calculated as indicators for accumulation of the chemical compounds used (n=4).

A short description of series [5]: Rat biodistribution study. It counts as in vivo, Wistar rats. As to conditions: rats. On the procedure: as §1
The biodistribution study of [^18F]TAP-018 in rats was conducted by the same procedure as in Test Example 2 using 6-week-old male Wistar rats (from Japan SLC, Inc.) (n=4). The results are summarized in a bar graph (FIG. 4). […] This value is about ten times higher than the value of 1.5 for [^18F]FBnTP which has been used as a gold standard, and is sufficiently higher than the value of 9.2 for [^18F]FTPP which is currently under clinical study.

Series [6] concerns myocardium. Briefly: Small-animal PET study in rats. Particulars: i.v., PET 0 to 120 minutes. In kind it is in vivo, Wistar rats. The method, then:
The myocardial imaging study of [^18F]TAP-018 in rats was conducted using 6-week-old male Wistar rats. 200 μL (7.83-9.66 MBq) of a physiological saline solution of the test compound [^18F]TAP-018 was administered via the caudal vein to the rats fixed under isoflurane anesthesia (2%, 1.5 mL/min.), and then the whole bodies of the rats were imaged by small-animal PET at time points from 0 to 120 minutes after the administration. Subsequently, while the rats were kept fixed, their whole bodies were imaged by small-animal CT. The PET data were reconstructed by 3D-DRAMA, and the pixel values of the obtained PET images were converted to SUV to generate SUV images. These images were fused with CT images to produce fused images. Further, the locations of the myocardium, lung and liver were identified based on the fused images, and regions of interest (ROI) were drawn to calculate respective SUVavg values.

Regarding `[18F]c1ccc(C[P+](c2ccccc2)(c2ccccc2)c2ccccc2)cc1.[Br-]` [[^18F]FBnTP, 4-[^18F]fluorobenzyl-triphenylphosphonium bromide], the “heart/liver ratio (comparison values of reference agents)” value in series [1] is 1.5. Besides, the “accumulation in liver relative to myocardium” value in series [2] was “accumulating not only in the myocardium but also in the liver adjacent to the myocardium to the same extent”.

Take `[18F]c1ccc([P+](c2ccccc2)(c2ccccc2)c2ccccc2)cc1` [[^18F]FTPP]: in series [1], the “heart/liver ratio (comparison values of reference agents)” value was 9.2.

For `[18F]CCOc1ccc([P+](Cc2ccccc2)(c2ccccc2)c2ccccc2)cc1` [[^18F]TAP-001, Benzyl-[4-(2-[^18F]fluoroethoxy)phenyl]-diphenylphosphonium bromide], the “accumulation of radioactivity in the myocardium (PET/CT images)” value (from here on “accumulation … (PET/CT images)”) with myocardium [3] is given as “accumulation of radioactivity in the myocardium was observed”. For the same compound, in series [4], the “accumulation of labeled compound in the myocardium versus adjacent organs” value is reported as “more highly accumulates in the myocardium than in other adjacent organs”; the “ratio of radioactivity accumulations in the myocardium and liver (heart/liver ratio)” value (shortened to “ratio … (heart/liver ratio)”) was 2.70.

With `[18F]CCOc1cccc([P+](Cc2ccccc2)(c2ccccc2)c2ccccc2)c1.[Br-]` [[^18F]TAP-018, Benzyl[3-(2-[^18F]fluoroethoxy)phenyl]-diphenylphosphonium bromide], in the series with myocardium [3], the “contrast of myocardial images” value is given as “high-contrast myocardial images were obtained” and the “accumulation … (PET/CT images)” value is given as “accumulation of radioactivity in the myocardium was observed”. For the same compound, the “accumulation in the heart” value in series [5] (i.v., n=4) was “highly accumulated in the heart”. Further, the heart/liver ratio entry in series [5] (time point of 60 minutes) is on record as “about 15.5”. Moreover, in series [4], the “accumulation of labeled compound in the myocardium versus adjacent organs” value is reported as “more highly accumulates in the myocardium than in other adjacent organs”; the “ratio … (heart/liver ratio)” value was determined as 9.40. In the series with myocardium [6], the “accumulation of radioactivity in the heart (radioactivity-time curve)” value is listed as “a high level of radioactivity accumulated in the heart immediately after the administration” and the “disappearance of radioactivity from the liver (radioactivity-time curve)” value is “radioactivity disappeared rapidly from the liver until 10 minutes after the administration”.

Turning to `COc1ccc(C[P+](c2ccccc2)(c2ccccc2)c2cccc(OCC[18F])c2)cc1` [[^18F]TAP-019, [3-(2-[^18F]fluoroethoxy)phenyl]-(4-methoxyphenyl)methyl-diphenylphosphonium bromide], in the series with myocardium [3], the “contrast of myocardial images” value is on record as “high-contrast myocardial images were obtained” and the “accumulation … (PET/CT images)” value is given as “accumulation of radioactivity in the myocardium was observed”. Further, in series [4], the “accumulation of labeled compound in the myocardium versus adjacent organs” value is recorded as “more highly accumulates in the myocardium than in other adjacent organs”; the “ratio … (heart/liver ratio)” value was determined as 4.56.

On to `[18F]CCOc1cccc([P+](CCCc2ccccc2)(c2ccccc2)c2ccccc2)c1.[Br-]` [[^18F]TAP-022, [^18F][3-(2-fluoroethoxy)phenyl]-(3-phenylpropyl)-diphenylphosphonium bromide], for which, in the series on myocardium [3], the “contrast of myocardial images” value is “high-contrast myocardial images were obtained” and the “accumulation … (PET/CT images)” value is “accumulation of radioactivity in the myocardium was observed”. In addition, in series [4], the “accumulation of labeled compound in the myocardium versus adjacent organs” value is “more highly accumulates in the myocardium than in other adjacent organs”; the “ratio … (heart/liver ratio)” value is 4.98.
